Laboratory results: patent US10174029B2, “Pyrimidine-2,4-diamine derivatives for treatment of cancer” (THOMAS HELLEDAYS STIFTELSE FOR MEDICINSK FORSKNING, priority 2012, dated 2019)

Biological target: MTH1 (Homo sapiens, UniProt P36639)
Experiment: MTH1 enzymatic assay and IC50 value determination (malachite green)
Type: biochemical
Conditions: MTH1 4.8 nM, dGTP 100 μM, 15 minutes at 22° C.
Procedure, shortened: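 Malachite green detection of Pi after coupling dGTP hydrolysis to excess E. coli pyrophosphatase; 4.8 nM MTH1, 100 μM dGTP in Tris-acetate buffer with Mg2+ and DTT, 1% DMSO, 15 min at 22 °C. 12-point 1:3 compound series; absorbance at 630 nm; IC50 by four-parameter nonlinear regression.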

| SMILES | IC50 (group: less than 200 nM) [nM] | IC50 (group: between 2 μM and 10 μM) [nM] |
| --- | --- | --- |
| Cc1cccc(-c2cc(NCCCNS(=O)(=O)c3cn(C)c(C)n3)nc(N)n2)c1C [Example 391, N-(3-{[2-Amino-6-(2,3-dimethylphenyl)pyrimidin-4-yl]amino}propyl)-1,2-dimethyl-1H-imidazole-4-sulfonamide] | < 200 |  |
| CCOC(=O)CNc1cc(-c2cccc(C)c2C)nc(N)n1 [Example 396, Ethyl 2-{[2-amino-6-(2,3-dimethylphenyl)pyrimidin-4-yl]amino}acetate] |  | 2000 to 10000 |
| Cc1cccc(-c2cc(NCCNc3ccc(C#N)cn3)nc(N)n2)c1C [Example 397, 6-[(2-{[2-Amino-6-(2,3-dimethylphenyl)pyrimidin-4-yl]amino}ethyl)amino]pyridine-3-carbonitrile] | < 200 |  |
| Cc1nnc(CNc2cc(-c3cccc(C)c3C)nc(N)n2)[nH]1 [Example 399, 6-(2,3-Dimethylphenyl)-4-N-[(5-methyl-4H-1,2,4-triazol-3-yl)methyl]pyrimidine-2,4-diamine] |  | 2000 to 10000 |
| Cc1cccc(-c2cc(NCCCNS(=O)(=O)c3cccc(S(C)(=O)=O)c3)nc(N)n2)c1C [Example 402, N-(3-{[2-Amino-6-(2,3-dimethylphenyl)pyrimidin-4-yl]amino}propyl)-3-methanesulfonylbenzene-1-sulfonamide] | < 200 |  |
| Cc1cccc(-c2cc(NCCCNS(=O)(=O)c3ccccc3S(C)(=O)=O)nc(N)n2)c1C [Example 403, N-(3-{[2-Amino-6-(2,3-dimethylphenyl)pyrimidin-4-yl]amino}propyl)-2-methanesulfonylbenzene-1-sulfonamide] | < 200 |  |
| Cc1ncsc1CCNc1cc(-c2cccc(Cl)c2Cl)nc(N)n1 [Example 405, 6-(2,3-dichlorophenyl)-4-N-[2-(4-methyl-1,3-thiazol-5-yl)ethyl]pyrimidine-2,4-diamine] | < 200 |  |
| Cc1ncsc1CCNc1cc(-c2cccc(Cl)c2C)nc(N)n1 [Example 406, 6-(3-chloro-2-methylphenyl)-4-N-[2-(4-methyl-1,3-thiazol-5-yl)ethyl]pyrimidine-2,4-diamine] | < 200 |  |
| Cc1cccc(-c2cc(NCCc3c[nH]cn3)nc(N)n2)c1C [Example 408, 6-(2,3-dimethylphenyl)-4-N-[2-(1H-imidazol-4-yl)ethyl]pyrimidine-2,4-diamine] | < 200 |  |
| Cc1cccc(-c2cc(NCCCc3nc4ccccc4[nH]3)nc(N)n2)c1C [Example 409, 4-N-[3-(1H-1,3-benzodiazol-2-yl)propyl]-6-(2,3-dimethylphenyl)pyrimidine-2,4-diamine] | < 200 |  |
| Cc1cccc(-c2cc(NCc3cnc(-c4ccccc4)s3)nc(N)n2)c1C [Example 411, 6-(2,3-dimethylphenyl)-4-N-[(2-phenyl-1,3-thiazol-5-yl)methyl]pyrimidine-2,4-diamine] | < 200 |  |
| CN(C)S(=O)(=O)c1ccc(CCNc2cc(-c3cccc(Cl)c3Cl)nc(N)n2)cc1 [Example 415, 4-(2-{[2-amino-6-(2,3-dichlorophenyl)pyrimidin-4-yl]amino}ethyl)-N,N-dimethylbenzene-1-sulfonamide] | < 200 |  |
| Cc1cccc(-c2cc(NCCc3ccc(S(=O)(=O)N(C)C)cc3)nc(N)n2)c1C [Example 416, 4-(2-{[2-amino-6-(2,3-dimethylphenyl)pyrimidin-4-yl]amino}ethyl)-N,N-dimethylbenzene-1-sulfonamide] | < 200 |  |
| Nc1nc(NC2CC2)cc(-c2ccc(Cl)c(Cl)c2Cl)n1 [Example 418, 4-N-Cyclopropyl-6-(2,3,4-trichlorophenyl)pyrimidine-2,4-diamine] | < 200 |  |
| Nc1nc(NCCc2ccc(Cl)cc2)cc(-c2ccc(Cl)c(Cl)c2Cl)n1 [Example 419, 4-N-[2-(4-Chlorophenyl)ethyl]-6-(2,3,4-trichlorophenyl)pyrimidine-2,4-diamine] | < 200 |  |
| [2H]C([2H])([2H])Nc1cc(-c2cccc(C)c2C)nc(N)n1 [Example 420, 6-(2,3-dimethylphenyl)-4-N—(^2H3)methylpyrimidine-2,4-diamine] | < 200 |  |
| [2H]C([2H])([2H])Nc1cc(-c2cccc(C)c2Cl)nc(N)n1 [Example 422, 6-(2-chloro-3-methylphenyl)-4-N—(^2H3)methylpyrimidine-2,4-diamine] | < 200 |  |

| SMILES | IC50 (group: less than 200 nM) [nM] | IC50 (group: between 2 μM and 10 μM) [nM] |
| --- | --- | --- |
| Cc1cccc(-c2cc(NCCCCNS(=O)(=O)c3ccc(S(C)(=O)=O)cc3)nc(N)n2)c1C [Example 424, N-(4-{[2-amino-6-(2,3-dimethylphenyl)pyrimidin-4-yl]amino}butyl)-4-methanesulfonylbenzene-1-sulfonamide] | < 200 |  |
| Cc1c(C#N)cccc1-c1cc(NCCc2ccc(S(N)(=O)=O)cc2)nc(N)n1 [Example 426, 4-(2-{[2-amino-6-(3-cyano-2-methylphenyl)pyrimidin-4-yl]amino}ethyl)benzene-1-sulfonamide] | < 200 |  |
| Cc1c(-c2cc(NCCc3ccc(S(N)(=O)=O)cc3)nc(N)n2)ccc(Cl)c1Cl [Example 428, 4-(2-{[2-amino-6-(3,4-dichloro-2-methylphenyl)pyrimidin-4-yl]amino}ethyl)benzene-1-sulfonamide] | < 200 |  |
| C#CCNc1cc(-c2cccc(Cl)c2C)nc(N)n1 [Example 429, 6-(3-chloro-2-methylphenyl)-4-N-(prop-2-yn-1-yl)pyrimidine-2,4-diamine] | < 200 |  |
| Cc1c(F)ccc(-c2cc(NCCc3ccc(S(C)(=O)=O)cc3)nc(N)n2)c1C [Example 430, 6-(4-fluoro-2,3-dimethylphenyl)-4-N-[2-(4-methanesulfonylphenyl)ethyl]pyrimidine-2,4-diamine] | < 200 |  |
| Cc1cc(Cl)ccc1-c1cc(NCCc2ccc(S(N)(=O)=O)cc2)nc(N)n1 [Example 432, 4-(2-{[2-amino-6-(4-chloro-2-methylphenyl)pyrimidin-4-yl]amino}ethyl)benzene-1-sulfonamide] | < 200 |  |
| Nc1nc(NCCc2ccc(S(N)(=O)=O)cc2)cc(-c2ccc(F)c(F)c2F)n1 [Example 434, 4-(2-{[2-amino-6-(2,3,4-trifluorophenyl)pyrimidin-4-yl]amino}ethyl)benzene-1-sulfonamide] | < 200 |  |
| Cc1c(F)ccc(-c2cc(NC3CC3)nc(N)n2)c1C [Example 436, 4-N-cyclopropyl-6-(4-fluoro-2,3-dimethylphenyl)pyrimidine-2,4-diamine] | < 200 |  |
| Cc1cc(-c2cc(NCCc3ccc(S(N)(=O)=O)cc3)nc(N)n2)c(C)cc1F [Example 439, 4-(2-{[2-amino-6-(4-fluoro-2,5-dimethylphenyl)pyrimidin-4-yl]amino}ethyl)benzene-1-sulfonamide] | < 200 |  |
| Cc1cccc(-c2cc(NCCNc3ccc(S(N)(=O)=O)cn3)nc(N)n2)c1C [Example 443, 6-[(2-{[2-amino-6-(2,3-dimethylphenyl)pyrimidin-4-yl]amino}ethyl)amino]pyridine-3-sulfonamide] | < 200 |  |
| Cc1cccc(-c2cc(NCCCNS(=O)(=O)c3ccc(S(N)(=O)=O)cc3)nc(N)n2)c1C [Example 444, 1-N-(3-{[2-amino-6-(2,3-dimethylphenyl)pyrimidin-4-yl]amino}propyl)benzene-1,4-disulfonamide] | < 200 |  |
| CS(=O)(=O)c1ccc(CCNc2cc(-c3cccc(Cl)c3Cl)nc(N)n2)cc1 [Example 445, 6-(2,3-dichlorophenyl)-4-N-[2-(4-methanesulfonylphenyl)ethyl]pyrimidine-2,4-diamine] | < 200 |  |
| COc1cccc(NCCNc2cc(-c3cccc(C)c3C)nc(N)n2)c1 [Example 447, 6-(2,3-dimethylphenyl)-4-N-{2-[(3-methoxyphenyl)amino]ethyl}pyrimidine-2,4-diamine] | < 200 |  |
| Cc1cccc(-c2cc(NCCNc3ccc(Br)cn3)nc(N)n2)c1C [Example 451, 4-N-{2-[(5-bromopyridin-2-yl)amino]ethyl}-6-(2,3-dimethylphenyl)pyrimidine-2,4-diamine] | < 200 |  |
| Cc1noc(C)c1-c1cc(NCCc2ccc(Cl)cc2)nc(N)n1 [Example 453, 4-N-[2-(4-chlorophenyl)ethyl]-6-(dimethyl-1,2-oxazol-4-yl)pyrimidine-2,4-diamine] | < 200 |  |
| Cc1cccc(-c2cc(NCCNc3cccnc3)nc(N)n2)c1C [Example 454, 6-(2,3-dimethylphenyl)-4-N-{2-[(pyridin-3-yl)amino]ethyl}pyrimidine-2,4-diamine] | < 200 |  |
